Test results published in patent US20240057596A1 (priority 2021, published 2024).
Read-outs that look alike come from different tables or passages of the source.

What was measured:
Rhizoctonia solani = experiment: field trial sheath blight on rice in Thailand, percentage disease; type: in vivo; conditions: 750 g/ha, 2 sprays at 7 day interval; for percentage of disease (%): location L1; for percentage of sheath blight disease (%): location L2
Experimental: A field trial was established to test the efficacy of different compositions for control of sheath blight (Rhizoctonia solani) on rice in Thailand at two locations: L1: Bang Kham, Sriprachan, Suphanburi; and L2: Don Pru, Sriprachan, Suphanburi. Disease inoculation was performed 14 days before 1st spray.
(§1) At location L1, experimental design was randomize complete block (RCB); number of different treatments: six as provided in Table 11; number of replications: 4; plot size: 6×5 m/plot; rice variety: PTT1; and spray volume: 312.5 L/ha. One treatment had 4 replications, with one replication having 10 samplings.
Data assessments included percentage of length (cm) of the symptom infected and length of the plant (cm) before 1st spray; before 2nd spray; 7 days after 2nd spray; at 2 weeks after 2nd spray; at 3 weeks after 2nd spray; and at 2 weeks before harvest.
The percentage disease was calculated as follows:
Disease (%)=[length of infection symptom (cm)/length of plant (cm)]×100
as §1, with “L2,” for “L1,”
Data assessments included percentage of length (cm) of the symptom infected and length of the plant (cm) before 1st spray; before 2nd spray; 7 days after 2nd spray; 2 weeks after 2nd spray; at 3 weeks after 2nd spray; and at 2 weeks before harvest.

rice plants = type: in vivo, rice variety: PTT1; conditions: 750 g/ha; for Yield (kg/plot): plot 9 m2, 120 DAS

Cc1cccc2sc3nncn3c12 [Tricyclazole]
percentage of disease (%) (Rhizoctonia solani; 2 WBH (106 DAS)): 35.63 b %
percentage of disease (%) (Rhizoctonia solani; 7 DAA#2 (89 DAS)): 35.66 bc %
percentage of disease (%) (Rhizoctonia solani; 14 DAA#2 (96 DAS)): 37.90 c %
percentage of disease (%) (Rhizoctonia solani; 21 DAA#2 (103 DAS)): 35.89 c %
percentage of disease (%) (Rhizoctonia solani; BA#1 (before 1st spray, 75 DAS)): 22.57 a %
percentage of disease (%) (Rhizoctonia solani; BA#2 (before 2nd spray, 82 DAS)): 40.05 bc %
percentage of sheath blight disease (%) (Rhizoctonia solani; 2 WBH (106 DAS)): 39.11 b %
percentage of sheath blight disease (%) (Rhizoctonia solani; 7 DAA#2 (84 DAS)): 37.90 bc %
percentage of sheath blight disease (%) (Rhizoctonia solani; 14 DAA#2 (91 DAS)): 38.71 d %
percentage of sheath blight disease (%) (Rhizoctonia solani; 21 DAA#2 (98 DAS)): 39.75 d %
percentage of sheath blight disease (%) (Rhizoctonia solani; BA#1 (before 1st spray, 70 DAS)): 26.10 a %
percentage of sheath blight disease (%) (Rhizoctonia solani; BA#2 (before 2nd spray, 77 DAS)): 32.67 b %
Yield (kg/ha) (rice plants; location L1): 5861.11 kg/ha
Yield (kg/rai) (rice plants; location L1): 937.78 kg/rai
Yield (kg/plot) (rice plants; location L1): 5.28 kg/plot
Yield (kg/ha) (rice plants; location L2): 6638.89 ab kg/ha
Yield (kg/rai) (rice plants; location L2): 1062.22 kg/rai
Yield (kg/plot) (rice plants; location L2): 5.98 kg/plot
